This note sets out measurements from ChEMBL document CHEMBL1201862, “PubChem BioAssay data set” (2004).

Common to all, as to test: DTP human tumour cell line panel, 48 h
The test system of assay [1] is BT-549.
Assay [2] relates to CCRF-CEM.
For assay [3], the system named is COLO 205.
Assay [4] relates to EKVX.
Assay [5] concerns HCC 2998.
The subject of assay [6] is HOP-62.
The test system of assay [7] is K562.
Assay [8] deals with MDA-N.
Assay [9] has as its system MOLT-4.
In assay [10] the test system is NCI-H226.
The subject of assay [11] is NCI-H23.
In assay [12] the test system is OVCAR-5.
The test system of assay [13] is RPMI-8226.
In assay [14] the test system is SK-MEL-2.
Assay [15] has as its system T47D.
For assay [16], the system named is U-251.
For assay [17], the system named is UACC-62.
The test system of assay [18] is LOX IMVI.
Assay [19] concerns SR.

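Method: 48-hour compound exposure of cells in 96-well plates, five concentrations, linear interpolation of endpoints. At the GI50, growth is halved.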 Active and inactive are the calls of the source. No stated cut-off is given here; in the data, active = GI50 up to about 1.1 µM and inactive = higher.

Broadly, the GI50 is the concentration that inhibits growth by half. Turning to `CC12CCC(CC1=O)C2(C)CCC(N)=O` (configuration not stated), the GI50 in assay [1], in assay [2], in [3], in assay [4], in assay [5] and in assay [6] was > 100 µM (inactive) in each case. The GI50 in [7], in assay [8], in assay [9], in assay [10], in assay [11] and in [12] was > 100 µM (inactive) throughout. The GI50 in assay [13], in assay [14], in assay [15], in assay [16] and in [17] was > 100 µM (inactive) throughout.
Regarding `CC(C)(Cl)C(Br)CC/C(=C/CBr)CBr.CC(C)(Cl)C(Br)CC/C(=C\CBr)CBr` (configuration not stated), the GI50 in [1] was 2.77 µM (inactive); in assay [2] it was 0.959 µM (active); in assay [3], 2.32 µM (inactive); in [4] it was 24.8 µM (inactive); in assay [5], 5.82 µM (inactive); in [6], 5.93 µM (inactive). Further, the GI50 in assay [7] is 1.71 µM (inactive); in [8], 2.62 µM (inactive); in [9], 1.14 µM (inactive); in assay [10], 24.6 µM (inactive); in assay [11], 2.83 µM (inactive); in [12], 13.2 µM (inactive). In addition, the 50% growth inhibitory concentration (GI50) is 1.11 µM (active) in [13]; 4.98 µM (inactive) in [14]; 4.23 µM (inactive) in assay [15]; 2 µM (inactive) in [16]; 5.01 µM (inactive) in assay [17].
For the compound `CC(=O)c1csc2c1C(=O)c1scc(C(C)=O)c1C2=O`, the GI50 in [1] is 1.75 µM (inactive); in assay [2], 0.5 µM (active); in assay [3], 1.97 µM (inactive); in [4], 1.89 µM (inactive); in assay [6] it was 1.8 µM (inactive); in assay [7], 0.74 µM (active). Further, the GI50 in assay [18] was 1.41 µM (inactive); in assay [8], 0.176 µM (active); in assay [9], 0.347 µM (active); in [10], 2.25 µM (inactive); in [11], 1.37 µM (inactive); in assay [12], 1.98 µM (inactive). The concentration for 50% growth inhibition (GI50) in [13] is 0.944 µM (active); in assay [14], 1.89 µM (inactive); in assay [15], 0.323 µM (active); in assay [16] it was 1.43 µM (inactive); in assay [17], 1.98 µM (inactive).
Take `COc1cc(C2SCC(=O)N2NC(=O)c2ccc(NC(C)=O)cc2OC)ccc1O` (configuration not stated): the GI50 was > 100 µM (inactive) in [1]; > 100 µM (inactive) in assay [2]; > 100 µM (inactive) in assay [3]; 5.74 µM (inactive) in [4]; 4.12 µM (inactive) in [6]; > 100 µM (inactive) in [7]. In addition, the GI50 in [18] was > 100 µM (inactive); in assay [8], > 100 µM (inactive); in [9], > 100 µM (inactive); in assay [11], 92.9 µM (inactive); in assay [12] it was 23.1 µM (inactive); in [13], 0.883 µM (active). The GI50 in [14] was 22.2 µM (inactive); in assay [19] it was > 100 µM (inactive); in assay [15], 67.1 µM (inactive); in [17] it was > 100 µM (inactive).
As for `COC(=O)c1ccccc1C1CN=NC12Cc1cc(C)cc(C)c1C2=O` (configuration not stated), the GI50 in assay [1] is 63.4 µM (inactive); in assay [2], 33.4 µM (inactive); in assay [3] it was 30.5 µM (inactive); in [4], 70 µM (inactive); in assay [5], 46.9 µM (inactive); in [6] it was > 100 µM (inactive). Further, the GI50 in assay [7] was 40.5 µM (inactive); in assay [18], 20 µM (inactive); in [8], 57 µM (inactive); in assay [9], 32.1 µM (inactive); in assay [10], 99.3 µM (inactive); in assay [11], 15.1 µM (inactive). The GI50 was > 100 µM (inactive) in assay [12]; > 100 µM (inactive) in [14]; 44.7 µM (inactive) in assay [15]; 64.1 µM (inactive) in assay [16]; 75.5 µM (inactive) in assay [17].
For the compound `Cc1cc2[nH]c3c(C#N)c4c(c(=O)n3c2cc1C)CCCC4`, the GI50 is > 100 µM (inactive) in [1]; > 100 µM (inactive) in [2]; > 100 µM (inactive) in assay [3]; > 100 µM (inactive) in assay [4]; > 100 µM (inactive) in assay [5]; 64.9 µM (inactive) in [7]. The GI50 in assay [18] was > 100 µM (inactive); in [8], 87.9 µM (inactive); in assay [9], > 100 µM (inactive); in assay [10], > 100 µM (inactive); in assay [11] it was > 100 µM (inactive); in [12], 18.7 µM (inactive). Further, the GI50 was > 100 µM (inactive) in assay [14], > 100 µM (inactive) in [15], 40.2 µM (inactive) in assay [16] and > 100 µM (inactive) in [17].
Consider `CCO[C@@]1(COCc2ccccc2)OC(=O)C[C@@H]1N1C(=O)OC[C@@H]1c1ccccc1`, for which the GI50 in assay [1] was > 100 µM (inactive); in [2], > 100 µM (inactive); in [3] it was > 100 µM (inactive); in assay [4] it was > 100 µM (inactive); in assay [5], > 100 µM (inactive); in assay [6], 26.6 µM (inactive). Further, the GI50 in [7] was > 100 µM (inactive); in assay [18], > 100 µM (inactive); in assay [8], > 100 µM (inactive); in [9], 58.9 µM (inactive); in assay [10] it was > 100 µM (inactive); in assay [11], > 100 µM (inactive). Besides, the GI50 in assay [12], in [13], in [14], in [15], in assay [16] and in [17] was > 100 µM (inactive) each time.
On to `CCOP(=O)(OCC)/C(=C/c1ccccc1)CC(C)=O`, for which the GI50 in assay [1], in assay [2], in assay [3], in assay [4], in assay [5] and in assay [6] was > 100 µM (inactive) in each case. The GI50 in [7], in assay [18], in assay [8], in assay [9], in [10] and in assay [11] was > 100 µM (inactive) throughout. Besides, the GI50 in assay [12], in [14], in assay [15], in assay [16] and in assay [17] was > 100 µM (inactive) throughout.
On to `COc1ccc(-c2nc(SCC(=O)N/N=C/c3ccc(N(C)C)cc3)[nH]c2-c2ccc(OC)cc2)cc1`, for which the GI50 in [1] is > 100 µM (inactive); in [2], 8.57 µM (inactive); in [3], 10.2 µM (inactive); in assay [4] it was 90.4 µM (inactive); in assay [5] it was 75.9 µM (inactive); in assay [6], > 100 µM (inactive). Also, the GI50 was 18.5 µM (inactive) in [7]; 92.9 µM (inactive) in assay [18]; 76.9 µM (inactive) in [8]; > 100 µM (inactive) in [11]; 99.5 µM (inactive) in assay [12]; 86.1 µM (inactive) in assay [14]. Also, the GI50 is 10.6 µM (inactive) in [15], 36.9 µM (inactive) in assay [16] and 46.7 µM (inactive) in assay [17].
As for `c1ccc(C/C(=N\Nc2nc3ccccc3[nH]2)c2ccccn2)cc1`, the 50% growth inhibitory concentration (GI50) was 0.248 µM (active) in assay [1]; < 0.01 µM (active) in assay [2]; < 0.01 µM (active) in [3]; 13.1 µM (inactive) in [5]; < 0.0232 µM (active) in assay [6]; 0.0228 µM (active) in assay [7]. The GI50 is 0.119 µM (active) in [18]; 0.262 µM (active) in assay [8]; < 0.01 µM (active) in [9]; < 0.0279 µM (active) in [10]; 0.019 µM (active) in assay [11]; < 0.01 µM (active) in assay [13]. In addition, the GI50 in assay [14] is 2.89 µM (inactive); in assay [15], < 0.01 µM (active); in assay [16], < 0.0221 µM (active); in assay [17], 0.147 µM (active).
As for `COc1ccc(-c2cc(=O)c3c(O)c(OC)c(O)cc3o2)cc1O`, the GI50 was 19.3 µM (inactive) in assay [1]; 3.7 µM (inactive) in [2]; 20.6 µM (inactive) in assay [3]; 9.25 µM (inactive) in [4]; 6.12 µM (inactive) in assay [5]; 6.9 µM (inactive) in assay [6]. Moreover, the GI50 in assay [7] was 0.679 µM (active); in assay [18], 3.51 µM (inactive); in [8], 0.406 µM (active); in assay [9], 3.19 µM (inactive); in [10] it was 35 µM (inactive); in assay [11], 17.7 µM (inactive). Besides, the GI50 in assay [12] was 32.8 µM (inactive); in [13], 2.45 µM (inactive); in [14] it was 3.93 µM (inactive); in assay [15], 5.94 µM (inactive); in assay [16], 5.26 µM (inactive); in [17], 4.04 µM (inactive).
Consider `COC1=CC(=O)C[C@@H](C)[C@]12Oc1c(Cl)c(OC)cc(OC)c1C2=O` [GRISEOFULVIN], for which the GI50 in assay [1] was > 39.5 µM (inactive); in assay [2], 33.3 µM (inactive); in [3], 9.89 µM (inactive); in assay [4] it was > 100 µM (inactive); in [5], 17.2 µM (inactive); in [6] it was 49.9 µM (inactive). For the same compound, the GI50 in assay [7] is 3.47 µM (inactive); in assay [18], 18.7 µM (inactive); in assay [9] it was 39.9 µM (inactive); in assay [10], 52.8 µM (inactive); in assay [11], 42.1 µM (inactive); in [12], > 91.6 µM (inactive). For the same compound, the GI50 in assay [13] was 19.4 µM (inactive); in assay [14] it was > 71.6 µM (inactive); in [19], 7.48 µM (inactive); in assay [15], 38.2 µM (inactive); in [16], 27.7 µM (inactive); in [17] it was 18.6 µM (inactive).
